We go through 14 compounds from ChEMBL document CHEMBL1128940, “Dual inhibition of angiotensin-converting enzyme and neutral endopeptidase by tricyclic benzazepinone thiols” (Bioorg Med Chem Lett, 1996).

Some results are limits rather than exact numbers.

The target in assay [1] is Angiotensin-converting enzyme (Homo sapiens, UniProt P12821+Q9BYF1). As to the kind of experiment: Inhibition of Angiotensin I converting enzyme. The format is protein assay.
The next assay concerns the target Neprilysin (Homo sapiens, UniProt P08473). In words: Inhibition of neutral endopeptidase.

Sequence of Neprilysin (P08473 whole entry): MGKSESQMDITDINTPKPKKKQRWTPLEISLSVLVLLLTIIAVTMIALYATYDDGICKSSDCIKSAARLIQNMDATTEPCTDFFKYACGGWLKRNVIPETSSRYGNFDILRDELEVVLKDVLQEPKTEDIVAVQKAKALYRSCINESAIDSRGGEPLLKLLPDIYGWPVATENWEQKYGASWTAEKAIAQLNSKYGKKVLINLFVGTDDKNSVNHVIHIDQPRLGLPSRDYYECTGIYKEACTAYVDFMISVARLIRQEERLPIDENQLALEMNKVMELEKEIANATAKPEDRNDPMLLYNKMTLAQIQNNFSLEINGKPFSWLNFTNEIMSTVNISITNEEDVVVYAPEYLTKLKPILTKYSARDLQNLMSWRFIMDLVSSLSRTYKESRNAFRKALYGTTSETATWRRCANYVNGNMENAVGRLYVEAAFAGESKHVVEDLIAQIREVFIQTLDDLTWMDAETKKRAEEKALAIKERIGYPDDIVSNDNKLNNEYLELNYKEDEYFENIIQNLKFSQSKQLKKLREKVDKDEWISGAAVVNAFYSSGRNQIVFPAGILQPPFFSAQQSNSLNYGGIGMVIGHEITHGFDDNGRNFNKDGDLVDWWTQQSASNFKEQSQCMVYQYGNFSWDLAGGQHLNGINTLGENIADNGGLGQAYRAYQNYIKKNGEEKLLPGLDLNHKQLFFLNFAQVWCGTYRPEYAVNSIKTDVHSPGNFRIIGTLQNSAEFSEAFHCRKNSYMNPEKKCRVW

One may read the IC50 as the concentration that inhibits the measured activity by half. Read a low IC50 as greater potency in that assay. Regarding `C[C@H](S)C(=O)NC1CCc2cccc3c2N(C1=O)[C@H](C(=O)O)C3` (some centres not stated), the IC50 in assay [1] is 165 nM; against Neprilysin, above 1000 nM. The matching figures for `O=C(N[C@@H]1CCc2cccc3c2N(C1=O)[C@H](C(=O)O)C3)[C@@H](S)Cc1ccccc1`: 62 nM and above 1000 nM. For the compound `O=C(N[C@H]1CCc2cccc3c2N(C1=O)[C@H](C(=O)O)C3)[C@@H](S)Cc1ccccc1`, the figures for the half-maximal inhibitory concentration (IC50) (in assay [1]; on Neprilysin) were 40 nM and 48 nM, respectively. The matching figures for `O=C(O)[C@@H]1Cc2cccc3c2N1C(=O)C(NC(=O)C1(S)Cc2ccccc2C1)CC3` (some centres not stated): above 1000 nM and 505 nM. As for `O=C(NC1CCc2cccc3c2N(C1=O)[C@H](C(=O)O)C3)[C@H](S)Cc1ccccc1` (some centres not stated), the figures for the IC50 (in assay [1]; against Neprilysin) were 283 nM and 83 nM, respectively. `O=C(NC1CCc2cccc3c2N(C1=O)[C@H](C(=O)O)C3)[C@@H](S)Cc1ccc(-c2ccccc2)cc1` (some centres not stated): the IC50 in assay [1] is 89 nM; against Neprilysin, above 1000 nM. The matching figures for `CC[C@@H](C)[C@H](S)C(=O)NC1CCc2cccc3c2N(C1=O)[C@H](C(=O)O)C3` (some centres not stated): 41 nM and above 1000 nM.

For `O=C(NC1CCc2cccc3c2N(C1=O)[C@H](C(=O)O)C3)[C@@H](S)C1CCCCC1` (some centres not stated), the results for the IC50 (in assay [1]; against Neprilysin) were below 100 nM and above 1000 nM, respectively. `CC(C)(S)C(=O)NC1CCc2cccc3c2N(C1=O)[C@H](C(=O)O)C3` (some centres not stated): the IC50 (in assay [1]; against Neprilysin) was above 1000 nM each time.

For `CC(C)[C@H](S)C(=O)NC1CCc2cccc3c2N(C1=O)[C@H](C(=O)O)C3` (some centres not stated), the IC50 in assay [1] stood at 30 nM; at Neprilysin, 940 nM. `O=C(CS)NC1CCc2cccc3c2N(C1=O)[C@H](C(=O)O)C3` (some centres not stated) returned an IC50 at Neprilysin above 1000 nM.

Consider `O=C(O)[C@@H]1Cc2cccc3c2N1C(=O)C(NC(=O)C1(S)CCCC1)CC3` (some centres not stated), for which the results for the IC50 (in assay [1]; against Neprilysin) were 253 nM and above 1000 nM, respectively. The matching figures for `O=C(N[C@H]1CCc2cccc3c2N(C1=O)[C@H](C(=O)O)C3)C(CS)Cc1ccc(-c2ccccc2)cc1` (stereo in doubt; 4m (S)): 77 nM and 15 nM.

For the compound `O=C(N[C@H]1CCc2cccc3c2N(C1=O)[C@H](C(=O)O)C3)C(CS)Cc1ccc(-c2ccccc2)cc1` (stereo in doubt; 4n (S)), the IC50 in assay [1] worked out at 1120 nM; on Neprilysin it was 12 nM.
